The source of these data is PMC11536076, “Intraoperative Guidance of Pancreatic Cancer Resection Using a Toll-like Receptor 2–Targeted Fluorescence Molecular Imaging Agent” (Cancer Research Communications, 2024).

Series [1] in a line: Absorbance and fluorescence emission spectra. It counts as physicochemical. On the procedure:
Absorbance and fluorescence emission spectra were generated using a Tecan Infinite M-1000 PRO multimode microplate reader. Solutions of TLR2L-800 were prepared from a 0.367 mmol/L stock solution in DMSO. Aliquots (2 µL) of TLR2L-800 were spotted on each well of a Tecan NanoQuant plate. The absorbance spectrum of TLR2L-800 (183.5 µmol/L in PBS) was acquired from 230 to 1,000 nm with a wavelength step size of 2 nm. The emission spectrum of TLR2L-800 (0.367 mmol/L in DMSO) was acquired with an excitation wavelength starting from 275 nm and emission wavelengths from 450 to 850 nm with an emission wavelength step size of 2 nm and bandwidth of 5 nm.

Details of series [2]: method as in LI-COR product sheet. The note with it: unconjugated dye in water; ref LI-COR product sheet; cited from earlier work.

Consider `CC1(C)C(=CC=C2CCCC(C=CC3=[N+](CCCCCC(=O)[O-])c4ccc(S(=O)(=O)[O-])cc4C3(C)C)=C2Oc2ccc(S(=O)(=O)[O-])cc2)N(CCCCS(=O)(=O)[O-])c2ccc(S(=O)(=O)[O-])cc21.[Na+].[Na+].[Na+].[Na+]` [IRDye800CW], for which the Stokes shift in series [1] turned out to be 15 nm. For the same compound, in series [2], the absorbance maxima is 774 nm and the emission maxima is on record as 789 nm.
